Laboratory results as given in patent US20240408093A1, “HETEROBIFUNCTIONAL COMPOUNDS AND THEIR USE IN TREATING DISEASE” (HALDA THERAPEUTICS OPCO, INC., priority 2022, published 2024).
Where two headings read alike, the source gives them in different places.

Experiments:
KRAS G12C = KRAS G12C (Homo sapiens, UniProt P01116, G12C); assay: KRAS G12C nucleotide exchange assay (SOS1-mediated, HTRF); assay type: biochemical; set-up: GST-tagged KRAS G12C (amino acids 2-169); conditions: 1 hr pre-incubation
KRAS G12C, sequence (P01116 2-169 isoform P01116-2 G12C): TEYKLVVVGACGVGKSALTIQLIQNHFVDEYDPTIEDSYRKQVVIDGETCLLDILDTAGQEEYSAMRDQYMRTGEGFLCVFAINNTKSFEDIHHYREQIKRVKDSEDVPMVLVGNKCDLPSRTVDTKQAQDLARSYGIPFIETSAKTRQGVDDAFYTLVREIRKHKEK
Protocol: KRAS target engagement (IC50 determination) was performed using a KRAS G12C nucleotide exchange assay. Specifically, compounds were tested against KRAS G12C in 10-point concentration IC50 mode with 3-fold serial dilution at a starting concentration of 10 μM. ARS1620 was used as a control.
Briefly, GST-tagged KRAS G12C (amino acids 2-169) was mixed with anti-GST Tb antibody (1.5× solution) and 10 μL was delivered to reaction wells. Compounds were delivered using an acoustic dispenser (Echo, Labcyte) and pre-incubated with protein for 1 hr at RT. KRAS/anti-GST Tb Ab/compound mixture was incubated for 1 hour at room temperature. A 3× solution of SOS1 (amino acids 564-1049) and GTP-DY-647P1 (GTP*) was prepared in reaction buffer. A 5 μL aliquot of SOS1/GTP* solution was added to reaction wells to initiate the exchange reaction. No-SOS1 reaction or max compound concentration was used as blank. The final concentrations of KRAS G12C, SOS1, and GTP* were 30 nM, 20 nM, and 0.15 μM, respectively. SOS1 mediated exchange of GDP to GTP-DY-647P was measured using HTRF (Ex/Em=(320-75/665-7.5; 615-8.5)) using an Envision Plate Reader (Perkin Elmer). IC50 determination was performed using a Sigmoidal dose response (variable slope) equation.

GSPT1 [1] = molecular target: T1, GSPT1 (Homo sapiens, UniProt P15170+Q96SW2); assay: GSPT1 HiBiT degradation assay; assay type: cell-based; conditions: HEK293 LgBiT GSPT1 HiBiT cells, 6 hours
T1 construct: host or cells: HEK293 LgBiT / GSPT1 HiBiT CRISPR knock-in
T1 sequence (P15170 whole entry): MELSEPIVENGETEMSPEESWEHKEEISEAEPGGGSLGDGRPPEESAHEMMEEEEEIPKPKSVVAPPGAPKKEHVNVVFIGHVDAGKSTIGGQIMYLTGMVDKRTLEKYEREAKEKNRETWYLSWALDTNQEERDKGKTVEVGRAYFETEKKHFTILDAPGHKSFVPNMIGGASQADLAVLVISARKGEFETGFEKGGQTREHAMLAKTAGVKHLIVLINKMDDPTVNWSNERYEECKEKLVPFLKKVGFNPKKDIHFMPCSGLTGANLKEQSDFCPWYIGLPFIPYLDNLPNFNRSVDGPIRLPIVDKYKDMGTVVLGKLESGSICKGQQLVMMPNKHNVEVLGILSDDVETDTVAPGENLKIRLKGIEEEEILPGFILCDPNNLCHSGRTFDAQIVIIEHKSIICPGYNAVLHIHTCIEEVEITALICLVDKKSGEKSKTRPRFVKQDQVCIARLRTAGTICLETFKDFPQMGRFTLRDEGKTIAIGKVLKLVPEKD
T1 sequence (Q96SW2 whole entry): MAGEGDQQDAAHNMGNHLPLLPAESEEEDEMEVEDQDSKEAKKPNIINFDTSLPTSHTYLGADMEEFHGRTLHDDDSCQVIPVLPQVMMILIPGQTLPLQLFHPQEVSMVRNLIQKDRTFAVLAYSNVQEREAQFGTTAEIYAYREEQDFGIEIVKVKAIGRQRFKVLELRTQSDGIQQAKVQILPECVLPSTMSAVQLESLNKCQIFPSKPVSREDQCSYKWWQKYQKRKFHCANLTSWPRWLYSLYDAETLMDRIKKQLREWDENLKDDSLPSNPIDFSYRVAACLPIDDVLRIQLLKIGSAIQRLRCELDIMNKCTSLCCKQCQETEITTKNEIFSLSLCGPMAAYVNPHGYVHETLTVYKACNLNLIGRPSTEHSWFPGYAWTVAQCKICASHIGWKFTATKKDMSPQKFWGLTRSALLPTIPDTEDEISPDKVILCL
T1 sequence (Q16531 whole entry partner): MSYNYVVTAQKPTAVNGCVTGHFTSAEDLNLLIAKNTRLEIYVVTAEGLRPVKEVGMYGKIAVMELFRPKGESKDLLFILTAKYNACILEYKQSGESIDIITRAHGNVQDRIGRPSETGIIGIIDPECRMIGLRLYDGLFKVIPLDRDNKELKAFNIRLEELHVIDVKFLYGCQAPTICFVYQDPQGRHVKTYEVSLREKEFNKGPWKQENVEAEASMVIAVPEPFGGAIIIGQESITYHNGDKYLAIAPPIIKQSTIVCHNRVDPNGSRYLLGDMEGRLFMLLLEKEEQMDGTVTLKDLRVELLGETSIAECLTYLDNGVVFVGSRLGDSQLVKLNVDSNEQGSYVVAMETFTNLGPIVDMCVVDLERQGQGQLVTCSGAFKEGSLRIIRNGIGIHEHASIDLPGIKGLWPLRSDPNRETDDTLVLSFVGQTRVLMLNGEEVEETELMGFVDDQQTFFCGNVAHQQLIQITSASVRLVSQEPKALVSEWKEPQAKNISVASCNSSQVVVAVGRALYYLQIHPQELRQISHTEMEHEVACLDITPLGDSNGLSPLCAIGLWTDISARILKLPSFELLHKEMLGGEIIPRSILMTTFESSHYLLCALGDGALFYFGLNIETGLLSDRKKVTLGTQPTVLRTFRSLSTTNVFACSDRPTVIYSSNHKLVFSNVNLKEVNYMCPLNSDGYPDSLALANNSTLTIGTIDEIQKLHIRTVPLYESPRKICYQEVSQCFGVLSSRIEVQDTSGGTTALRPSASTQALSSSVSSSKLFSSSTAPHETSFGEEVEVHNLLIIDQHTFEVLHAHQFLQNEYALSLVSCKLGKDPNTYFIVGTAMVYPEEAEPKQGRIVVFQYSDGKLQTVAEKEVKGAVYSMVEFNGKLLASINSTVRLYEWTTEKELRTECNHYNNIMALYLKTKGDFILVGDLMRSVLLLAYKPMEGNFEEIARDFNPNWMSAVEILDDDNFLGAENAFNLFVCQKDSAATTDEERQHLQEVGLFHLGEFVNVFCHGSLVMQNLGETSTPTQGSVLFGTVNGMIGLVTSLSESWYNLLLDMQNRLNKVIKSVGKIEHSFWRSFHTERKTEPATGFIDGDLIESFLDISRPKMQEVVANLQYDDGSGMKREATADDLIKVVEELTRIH
Source text: Promega developed a HEK293 cell line that constitutively expresses LgBiT protein and GSPT1_HiBiT fusion protein. When both proteins are present, the HiBiT portion of the fusion protein combines with LgBiT protein to form a functional luciferase enzyme. Endurazine, a cell permeable small molecule, is converted by cellular esterases into furimazine, which the luciferase enzyme uses as a substrate to generate luminescence. When GSPT1 is degraded, the HiBit is also degraded. This prevents formation of fully functional luciferase, leading to a loss in luminescence. GSPT1 degradation therefore correlates with a decrease in luminescence and can be measured continuously over time. The concentration of compound at which 50% GSPT1 degradation occurs (DC50) may be calculated using this system.
HEK293 LgBiTGSPT1 HiBiT CRISPR Knock-in cells were cultured in DMEM Media supplemented with 10% Heat-inactivated FBS, 1% Penicillin/Streptomycin, 200 μg/mL hygromycin and stored in a humidified incubator set at 37° C. and 5% CO2. 18-24 hours prior to compound treatment, cells were seeded at 1000 cells/well in a 384-well tissue culture-treated white plates in 25 μL media lacking selection for 18-24 hours. The plates were spun at 300 g for 30 seconds and stored in the incubator overnight. After 24 hours, compounds are titrated in DMSO and added to media supplemented with endurazine substrate. A 25 μL aliquot of 2× compound/endurazine in media is then added to the 384-well microplate with seeded cells. (Endurazine is used at a final concentration of 0.5×). The plate was spun at 300 g for 30 seconds and stored in the incubator. After 6 hours, the plate was read on a Perkin Elmer MultiMode Plate Reader Envision 2105 to measure luminescence signal. Data were plotted in Prism (Graphpad) and the concentration of compound at which 50% GSPT1 degradation occurs (DC50) was calculated.

HeLa cells (ATCC CCL-2) = assay: Cellular growth inhibition assay, HeLa cells (Example 16); assay type: cell-based; conditions: Homo sapiens, 72 hours, CellTiter-Glo 2.0
Protocol: (§1) Exemplary compounds were tested for ability to inhibit the proliferation of HEK293 cells (ATCC CRL-1573) and HeLa cells (ATCC CCL-2).
(§2) HEK293 and HeLa cells were cultured in DMEM (Gibco 11995), supplemented with 10% Heat-inactivated FBS (Gibco A38400-01) and 1% Penicillin/Streptomycin (Gibco 15140-122) at 37° C. with 5% CO2 in a humidified tissue culture incubator. Cells were seeded at 500 cells/well in 384-well, Poly-D-lysine-treated blackplates (Perkin Elmer 6007710) in 25 μL media lacking selection for 18-24 hours. Plates were spun at 300 g for 30 seconds and stored in the incubator overnight. After 24 hours, a 25 μL aliquot of compound-containing medium was added in each well, at a final top concentration of 10 μM test compound, with 3-fold dilutions, using DMSO alone as a negative control. Plates were then spun at 300×g for 3 minutes again and cultured at 37° C. with 5% CO2. After 72 hours, cell viability was quantified with CellTiter-Glo 2.0 (Promega). After equilibrating cell plates at room temperature for 30 minutes, 25 μL CellTiter-Glo 2.0 reagent was dispensed into each well. Plates were mixed on a shaker for 2 minutes at 500 rpm, followed by a 10-minute incubation at room temperature. Luminescence readings were measured with an EnVision Plate Reader (Perkin Elmer). Data was normalized to DMSO treated cell wells. A four-parameter non-linear regression curve fit was applied to dose-response data in Prism to determine the half maximal growth inhibitory concentration (GI50) of each compound.

[2] = tested on: HEK293 cells (ATCC CRL-1573); assay: Cellular growth inhibition assay, HEK293 cells (Example 16); assay type: cell-based; conditions: Homo sapiens, 72 hours, CellTiter-Glo 2.0
Protocol: as §1, §2

GSPT1 [3] = assay: Payload release assay (DC50 readout), GSPT1 degradation in the presence of recombinant target protein; assay type: cell-based; conditions: I-series compounds (GSPT1 readout inferred)
Protocol: Exemplary compounds were tested for ability to cause degradation of CCNK or GSPT1 in the presence of recombinant target protein.
HEK293 LgBiT/GSPT1 HiBiT CRISPR Knock-in cells (Promega) were cultured in DMEM (Gibco 11995), supplemented with 10% Heat-inactivated FBS (Gibco A38400-01) and 1% Penicillin/Streptomycin (Gibco 15140-122) and 200 Vg/ml Hygromycin B (Gibco 10-687-010) at 37° C. with 5% CO2 in a humidified tissue culture incubator. HEK293 LgBiT/CCNK HiBiT cells (in-house, described above) were cultured in DMEM (Gibco 11995), supplemented with 10% Heat-inactivated FBS (Gibco A38400-01) and 1% Penicillin/Streptomycin (Gibco 15140-122) 200 Vg/ml Hygromycin B (Gibco 10-687-010), and 1 Vg/ml Puromycin Dihydrochloride (Thermo A1113803) at 37° C. with 5% CO2 in a humidified tissue culture incubator. Cells were seeded (1000 cells/well for HEK293 LgBiT/GSPT1 HiBiT cells or 3000 cells/well for HEK293 LgBiT/CCNK HiBiT cells) 384-well, tissue culture-treated white plates (Perkin Elmer 6007680) in 10 μL media lacking selection for 18-24 hours. Plates were spun at 300 g for 30 seconds and stored in the incubator overnight. After 24 hours, a 5 μL aliquot of recombinant target protein (final concentration of either 5 μM KRAS amino acids 1-169, C51S, C80L, C118S, G12C or 3 μM EGFR amino acids 696-1022 or 3 μM EGFR amino acids 696-1022, T790M, L858R) was added to wells, followed immediately by a 5 μL aliquot of 4× compound-containing medium supplemented with Endurazine Substrate (Promega N2570) was added in each well, at a final top concentration of 10 μM test compound and 0.5× Endurazine, with 4-fold dilutions, using DMSO alone as a negative control. Plates were then spun at 300×g for 3 minutes again and cultured at 37° C. with 5% CO2. After 6 hours the plate was read on Envision MultiMode Plate Reader 2105 (Perkin Elmer) to measure luminescence signal. Data was normalized to DMSO treated cell wells. A four-parameter non-linear regression curve fit was applied to dose-response data in Prism to determine the half maximal growth inhibitory concentration (GI50) of each compound.

[4] = 0 μM recombinant KRAS G12C, read-out: DC50 at 0 μM KRAS G12C
[5] = 5 μM recombinant KRAS G12C, read-out: DC50 at 5 μM KRAS G12C

SMILES	IC50 (KRAS G12C) [µM]	DC50 (GSPT1 [1]) [µM]	GI50 (HeLa cells (ATCC CCL-2)) [µM]	GI50 [2] [µM]	DC50 (GSPT1 [3]; [4]) [µM]	DC50 (GSPT1 [3]; [5]) [µM]
C=C(CN1C(=O)CCC(N2Cc3cc(CNC(=O)Nc4ccc(C)c(Cl)c4)ccc3C2=O)C1=O)C(=O)N1CCN(c2nc(OC[C@@H]3CCCN3C)nc3c2CCN(c2cccc4cccc(Cl)c24)C3)C[C@@H]1CC#N (stereo partly drawn) [Compound I-2, 1-(3-chloro-4-methyl-phenyl)-3-[[2-[1-[2-[(2S)-4-[7-(8-chloro-1-naphthyl)-2-[[(2S)-1-methylpyrrolidin-2-yl]methoxy]-6,8-dihydro-5H-pyrido[3,4-d]pyrimidin-4-yl]-2-(cyanomethyl)piperazine-1-carbonyl]allyl]-2,6-dioxo-3-piperidyl]-1-oxo-isoindolin-5-yl]methyl]urea]	> 10	0.05 to 0.5				
C=C(COc1cc(Cl)cc(NC(=O)NCc2ccc3c(c2)CN(C2CCC(=O)NC2=O)C3=O)c1)C(=O)N1CCN(c2ncnc3c(F)c(-c4c(O)cccc4F)c(Cl)cc23)CC1 (stereo not drawn) [Compound I-43]	> 10	0.05 to 0.5	0.5 to 1.5	< 0.5		
C=C(COc1c(F)cc(CN2C(=O)CCC(N3Cc4cc(CNC(=O)Nc5ccc(C)c(Cl)c5)ccc4C3=O)C2=O)cc1F)C(=O)N1CCC[C@@H](n2nc(-c3ccc(Oc4ccccc4)cc3)c3c(N)ncnc32)C1 (stereo partly drawn) [Compound I-51]		> 2.5	> 10	> 10		
C=C(COC(=O)NCc1cc(Cl)cc(NC(=O)NCc2ccc3c(c2)CN(C2CCC(=O)NC2=O)C3=O)c1)C(=O)N1CCC[C@@H](n2nc(-c3ccc(Oc4ccccc4)cc3)c3c(N)ncnc32)C1 (stereo partly drawn) [Compound I-53, 2-((R)-3-(4-amino-3-(4-phenoxyphenyl)-1H-pyrazolo[3,4-d]pyrimidin-1-yl)piperidine-1-carbonyl)allyl (3-chloro-5-(3-((2-(2,6-dioxopiperidin-3-yl)-1-oxoisoindolin-5-yl)methyl)ureido)benzyl)carbamate]		0.05 to 0.5	0.5 to 1.5	0.5 to 1.5		
C=C(COc1cc(Cl)cc(NC(=O)NCc2ccc3c(c2)CN(C2CCC(=O)NC2=O)C3=O)c1)C(=O)N1CC(n2c(=O)c3cc(-c4cc(O)cc5ccccc45)ccc3n2C)C1 (stereo not drawn) [Compound I-57]	> 10	0.05 to 0.5	1.5 to 10	< 0.5	< 0.25	< 0.25
C=C(COc1cc(C(F)(F)C(=O)NCc2ccc3c(c2)CN(C2CCC(=O)NC2=O)C3=O)ccc1Cl)C(=O)N1CCN(c2nc(OC[C@@H]3CCCN3C)nc3c2CCN(c2cccc4cccc(Cl)c24)C3)C[C@@H]1CC#N (stereo partly drawn) [Compound I-81]	< 0.1	0.05 to 0.5		1.5 to 10	0.25 to 5	> 10
C=C(COc1cc([N+](=O)[O-])c(Cl)cc1NC(=O)NCc1ccc2c(c1)CN(C1CCC(=O)NC1=O)C2=O)C(=O)N1CCN(c2nc(OC[C@@H]3CCCN3C)nc3c2CCN(c2cccc4cccc(Cl)c24)C3)C[C@@H]1CC#N (stereo partly drawn) [Compound I-82]	0.1 to 5	> 2.5		> 10	> 10	5 to 10
C=C(CN1C(=O)CCC(N2Cc3cc(CNC(=O)Nc4cccc(Cl)c4O)ccc3C2=O)C1=O)C(=O)N1CCN(c2nc(OC[C@@H]3CCCN3C)nc3c2CCN(c2cccc4cccc(Cl)c24)C3)C[C@@H]1CC#N (stereo partly drawn) [Compound I-83]	0.1 to 5	0.5 to 2.5		1.5 to 10	0.25 to 5	> 10
C=C(COc1c(Cl)cccc1NC(=O)NCc1ccc2c(c1)CN(C1CCC(=O)NC1=O)C2=O)C(=O)N1CCC[C@@H](n2nc(-c3ccc(Oc4ccccc4)cc3)c3c(N)ncnc32)C1 (stereo partly drawn) [Compound I-115]		< 0.05	0.5 to 1.5	1.5 to 10		
